According to patent publication US9695155B2, “Herbicidal substituted pyrimidinyloxy benzene compounds” (E. I. DU PONT DE NEMOURS AND COMPANY, priority 2013, dated 2017):

Columns and labels:
kochia = experiment: Test E preemergence; type: in vivo, Kochia scoparia; conditions: for Kochia plant response rating: scale 0 to 100 (0 no effect, 100 complete control); for Plant response rating, Kochia: 125 g ai/ha, scale 0 to 100, 0 no effect, 100 complete control
In short: (§1)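 Response was scored visually on a 0-100 scale (100 = complete control) versus controls after 14 to 21 days in the greenhouse. Test chemicals, formulated with surfactant in a non-phytotoxic solvent mixture, had been applied preemergence to seeds in silt loam soil or postemergence to 1- to 4-leaf plants in potting medium.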

Brazilian crabgrass = experiment: Test E preemergence; type: in vivo, Digitaria horizontalis; conditions: for Crabgrass, Brazil plant response rating: scale 0 to 100 (0 no effect, 100 complete control); for Plant response rating, Crabgrass, Brazil: 125 g ai/ha, scale 0 to 100, 0 no effect, 100 complete control
In short: as §1

arrowleaf sida = experiment: Test E preemergence; type: in vivo, Sida rhombifolia; conditions: preemergence; for Arrowleaf Sida plant response rating: scale 0 to 100 (0 no effect, 100 complete control); for Plant response rating, Arrowleaf Sida: 125 g ai/ha, scale 0 to 100, 0 no effect, 100 complete control
In short: as §1

hairy beggarticks = experiment: Test E preemergence; type: in vivo, Bidens pilosa; conditions: preemergence; for Beggarticks plant response rating: scale 0 to 100 (0 no effect, 100 complete control); for Plant response rating, Beggarticks: 125 g ai/ha, scale 0 to 100, 0 no effect, 100 complete control
In short: as §1

nightshade = experiment: Test E preemergence; type: in vivo, Solanum ptycanthum; conditions: for Nightshade plant response rating: scale 0 to 100 (0 no effect, 100 complete control); for Plant response rating, Nightshade: 125 g ai/ha, scale 0 to 100, 0 no effect, 100 complete control
In short: as §1

johnsongrass = experiment: Test E preemergence; type: in vivo, Sorghum halepense; conditions: for Johnsongrass plant response rating: scale 0 to 100 (0 no effect, 100 complete control); for Plant response rating, Johnsongrass: 125 g ai/ha, scale 0 to 100, 0 no effect, 100 complete control
In short: as §1

galium = experiment: Test A postemergence; type: in vivo, Galium aparine; conditions: for Galium plant response rating: 125 g ai/ha
In short: (§2)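 Injury scores run from 0, no effect, to 100, complete control, judged by eye against untreated plants roughly 10 days after treatment. Chemicals carried a surfactant in a non-phytotoxic solvent and went onto loam–sand soil preemergence or onto one- to two-leaf seedlings postemergence.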

Italian ryegrass = experiment: Test A postemergence; type: in vivo, Lolium multiflorum; conditions: for Ryegrass, Italian plant response rating: 125 g ai/ha
In short: as §2

wild poinsettia = experiment: Test E preemergence; type: in vivo, Euphorbia heterophylla; conditions: for Poinsettia, Wild plant response rating: scale 0 to 100 (0 no effect, 100 complete control); for Plant response rating, Poinsettia, Wild: 125 g ai/ha, scale 0 to 100, 0 no effect, 100 complete control
In short: as §1

dayflower = experiment: Test E preemergence; type: in vivo, Commelina virginica; conditions: for Dayflower, VA plant response rating: scale 0 to 100 (0 no effect, 100 complete control); for Plant response rating, Dayflower, VA: 125 g ai/ha, scale 0 to 100, 0 no effect, 100 complete control
In short: as §1

field bindweed = experiment: Test E preemergence; type: in vivo, Convolvulus arvensis; conditions: for Field Bindweed plant response rating: scale 0 to 100 (0 no effect, 100 complete control); for Plant response rating, Field Bindweed: 125 g ai/ha, scale 0 to 100, 0 no effect, 100 complete control
In short: as §1

ragweed = experiment: Test A postemergence; type: in vivo, Ambrosia elatior; conditions: for Ragweed plant response rating: 125 g ai/ha
In short: as §2

velvetleaf = experiment: Test E preemergence; type: in vivo, Abutilon theophrasti; conditions: for Velvetleaf plant response rating: scale 0 to 100 (0 no effect, 100 complete control); for Plant response rating, Velvetleaf: 125 g ai/ha, scale 0 to 100, 0 no effect, 100 complete control
In short: as §1

[1] = 0 to 100 scale where 0 is no effect and 100 is complete control
[2] = 500 g ai/ha, 0 to 100 scale where 0 is no effect and 100 is complete control
[3] = 31 g ai/ha, 0 to 100 scale, 0 no effect, 100 complete control

FC(F)(F)COc1cnn(-c2ccccc2Oc2ncc(Cl)cn2)c1 [Compound 138, 5-chloro-2-[2-[4-(2,2,2-trifluoroethoxy)-1H-pyrazol-1-yl]phenoxy]pyrimidine]
Kochia plant response rating (kochia; 16 g ai/ha): 60
Kochia plant response rating (kochia; 31 g ai/ha): 75
Kochia plant response rating (kochia; 62 g ai/ha): 90
Plant response rating, Kochia (kochia): 100
Crabgrass, Brazil plant response rating (Brazilian crabgrass; 16 g ai/ha): 0
Crabgrass, Brazil plant response rating (Brazilian crabgrass; 31 g ai/ha): 40
Crabgrass, Brazil plant response rating (Brazilian crabgrass; 62 g ai/ha): 90
Plant response rating, Crabgrass, Brazil (Brazilian crabgrass): 98
Arrowleaf Sida plant response rating (arrowleaf sida; 16 g ai/ha): 0
Arrowleaf Sida plant response rating (arrowleaf sida; 31 g ai/ha): 0
Arrowleaf Sida plant response rating (arrowleaf sida; 62 g ai/ha): 40
Plant response rating, Arrowleaf Sida (arrowleaf sida): 100
Beggarticks plant response rating (hairy beggarticks; 16 g ai/ha): 0
Beggarticks plant response rating (hairy beggarticks; 31 g ai/ha): 0
Beggarticks plant response rating (hairy beggarticks; 62 g ai/ha): 0
Plant response rating, Beggarticks (hairy beggarticks): 0
Nightshade plant response rating (nightshade; 16 g ai/ha): 0
Nightshade plant response rating (nightshade; 31 g ai/ha): 0
Nightshade plant response rating (nightshade; 62 g ai/ha): 98
Plant response rating, Nightshade (nightshade): 90
Johnsongrass plant response rating (johnsongrass; 16 g ai/ha): 0
Johnsongrass plant response rating (johnsongrass; 31 g ai/ha): 0
Johnsongrass plant response rating (johnsongrass; 62 g ai/ha): 35
Plant response rating, Johnsongrass (johnsongrass): 40
Galium plant response rating (galium; [1]): 90
Plant response rating, Galium (galium; [2]): 100
Ryegrass, Italian plant response rating (Italian ryegrass; [1]): 40
Plant response rating, Ryegrass, Italian (Italian ryegrass; [2]): 90
Poinsettia, Wild plant response rating (wild poinsettia; 16 g ai/ha): 0
Poinsettia, Wild plant response rating (wild poinsettia; 31 g ai/ha): 25
Poinsettia, Wild plant response rating (wild poinsettia; 62 g ai/ha): 35
Plant response rating, Poinsettia, Wild (wild poinsettia): 25
Dayflower, VA plant response rating (dayflower; 16 g ai/ha): 0
Dayflower, VA plant response rating (dayflower; 31 g ai/ha): 5
Dayflower, VA plant response rating (dayflower; 62 g ai/ha): 30
Plant response rating, Dayflower, VA (dayflower): 40
Field Bindweed plant response rating (field bindweed; 16 g ai/ha): 0
Field Bindweed plant response rating (field bindweed; 31 g ai/ha): 20
Field Bindweed plant response rating (field bindweed; 62 g ai/ha): 40
Plant response rating, Field Bindweed (field bindweed): 50
Ragweed plant response rating (ragweed; [1]): 30
Plant response rating, Ragweed (ragweed; [2]): 60
Velvetleaf plant response rating (velvetleaf; 16 g ai/ha): 40
Velvetleaf plant response rating (velvetleaf; 31 g ai/ha): 70
Velvetleaf plant response rating (velvetleaf; 62 g ai/ha): 90
Plant response rating, Velvetleaf (velvetleaf): 100

N#Cc1cnn(-c2c(CF)cccc2Oc2ncc(F)cn2)c1 [Compound 151]
Kochia plant response rating (kochia; 31 g ai/ha): 80
Kochia plant response rating (kochia; 62 g ai/ha): 90
Plant response rating, Kochia (kochia): 100
Crabgrass, Brazil plant response rating (Brazilian crabgrass; 16 g ai/ha): 0
Crabgrass, Brazil plant response rating (Brazilian crabgrass; 31 g ai/ha): 35
Crabgrass, Brazil plant response rating (Brazilian crabgrass; 62 g ai/ha): 70
Plant response rating, Crabgrass, Brazil (Brazilian crabgrass): 75
Arrowleaf Sida plant response rating (arrowleaf sida; 16 g ai/ha): 60
Arrowleaf Sida plant response rating (arrowleaf sida; 31 g ai/ha): 80
Arrowleaf Sida plant response rating (arrowleaf sida; 62 g ai/ha): 100
Plant response rating, Arrowleaf Sida (arrowleaf sida): 100
Beggarticks plant response rating (hairy beggarticks; 16 g ai/ha): 65
Beggarticks plant response rating (hairy beggarticks; 31 g ai/ha): 65
Beggarticks plant response rating (hairy beggarticks; 62 g ai/ha): 95
Plant response rating, Beggarticks (hairy beggarticks): 100
Nightshade plant response rating (nightshade; 31 g ai/ha): 30
Nightshade plant response rating (nightshade; 62 g ai/ha): 75
Plant response rating, Nightshade (nightshade): 90
Johnsongrass plant response rating (johnsongrass; 31 g ai/ha): 0
Johnsongrass plant response rating (johnsongrass; 62 g ai/ha): 35
Plant response rating, Johnsongrass (johnsongrass): 70
Plant response rating, Galium (galium; [3]): 10
Galium plant response rating (galium; [1]): 40
Plant response rating, Ryegrass, Italian (Italian ryegrass; [3]): 0
Ryegrass, Italian plant response rating (Italian ryegrass; [1]): 30
Poinsettia, Wild plant response rating (wild poinsettia; 31 g ai/ha): 60
Poinsettia, Wild plant response rating (wild poinsettia; 62 g ai/ha): 100
Plant response rating, Poinsettia, Wild (wild poinsettia): 100
Dayflower, VA plant response rating (dayflower; 16 g ai/ha): 0
Dayflower, VA plant response rating (dayflower; 31 g ai/ha): 10
Dayflower, VA plant response rating (dayflower; 62 g ai/ha): 65
Plant response rating, Dayflower, VA (dayflower): 85
Field Bindweed plant response rating (field bindweed; 16 g ai/ha): 0
Field Bindweed plant response rating (field bindweed; 31 g ai/ha): 0
Field Bindweed plant response rating (field bindweed; 62 g ai/ha): 20
Plant response rating, Field Bindweed (field bindweed): 35
Plant response rating, Ragweed (ragweed; [3]): 50
Ragweed plant response rating (ragweed; [1]): 100
Velvetleaf plant response rating (velvetleaf; 31 g ai/ha): 95
Velvetleaf plant response rating (velvetleaf; 62 g ai/ha): 100
Plant response rating, Velvetleaf (velvetleaf): 100
